The record followed here is patent US20150352108A1, “AMINO-PYRIMIDINE COMPOUNDS AS INHIBITORS OF TBK1 AND/OR IKK EPSILON” (Alzheimer's Institute of America, priority 2009, published 2015).

Structures are written as SMILES.

The subject of data set [1] is IKKε-mediated phosphorylation of IRF3. Nature of the data set: In-situ phosphorylation of IRF3 (pIRF3 Ser396 ELISA) in HEK293T cells cotransfected with IRF3 and IKKε. In kind it is cell-based. Conditions: Homo sapiens, HEK-293T; HEK293T cells, 20 hours, text bins; read-out: IC50 for inhibition of the in-situ IKKε-mediated phosphorylation of IRF3. A digest of the protocol: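 Cells for the IRF7 Western blots carried IRF7 and TBK1 plasmids, were seeded at 150,000/well, exposed to compound overnight and probed for pSer477/Ser479 IRF7. The ELISA readout used IRF3 + IKKε-cotransfected HEK293T at 20,000/well with 20 h treatment, quantifying pSer396 IRF3 relative to DMSO, plus a parallel CellTiter-Glo viability check.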
For orientation: In an ELISA, binding on a coated surface is turned into a signal by an enzyme label.

In data set [2] the target is T1, IKKε (Homo sapiens, UniProt Q14164).
T1 construct: His-tag; made in house; host or cells: Sf9 insect cells
T1 sequence (Q14164 1-716): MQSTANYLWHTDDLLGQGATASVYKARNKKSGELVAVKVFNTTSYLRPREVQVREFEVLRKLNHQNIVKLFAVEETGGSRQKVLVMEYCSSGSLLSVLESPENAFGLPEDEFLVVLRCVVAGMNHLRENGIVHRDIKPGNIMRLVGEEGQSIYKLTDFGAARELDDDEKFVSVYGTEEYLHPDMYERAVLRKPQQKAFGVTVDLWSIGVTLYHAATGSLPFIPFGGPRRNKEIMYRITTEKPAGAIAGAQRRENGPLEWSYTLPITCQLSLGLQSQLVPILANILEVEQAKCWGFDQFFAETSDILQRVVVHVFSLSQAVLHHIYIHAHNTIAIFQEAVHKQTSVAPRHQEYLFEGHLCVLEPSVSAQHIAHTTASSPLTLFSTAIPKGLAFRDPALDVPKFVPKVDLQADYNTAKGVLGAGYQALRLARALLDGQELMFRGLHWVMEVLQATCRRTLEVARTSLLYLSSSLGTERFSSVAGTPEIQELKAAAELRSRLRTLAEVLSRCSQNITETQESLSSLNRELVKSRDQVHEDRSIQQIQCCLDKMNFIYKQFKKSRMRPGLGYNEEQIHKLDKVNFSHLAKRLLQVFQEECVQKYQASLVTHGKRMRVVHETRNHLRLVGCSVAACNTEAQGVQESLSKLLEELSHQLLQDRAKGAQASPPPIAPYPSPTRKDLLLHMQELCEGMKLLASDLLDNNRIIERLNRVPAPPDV
Nature of the data set: In-vitro IKKε kinase assay ([γ33]ATP filter-plate). Conditions: text bins; read-out: IC50 for inhibition of the kinase activity of IKKε. Format: biochemical. The method, boiled down:
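His-tagged IKKε and TBK1 from Sf9 cells were assayed with myelin basic protein or casein and [γ33]ATP at 2×Km ATP (32 μM for IKKε, 60 μM for TBK1). Enzyme was 0.1 or 0.015 μg/ml for IKKε and 0.1 or 0.02 μg/ml for TBK1 (normal/sensitized). Reactions ran 30-45 min, were filter-captured, scintillation-counted, and normalized to DMSO after background subtraction.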

For data set [3], the system named is IFN-β production. Nature of the data set: Inhibition of IFN-β production (similar assay to HFLS-RA RANTES/IP-10). Format: cell-based. Conditions: Homo sapiens. Here is the method:
HFLS cells (HFLS-RA) isolated from patients with rheumatoid arthritis were obtained from Cell Applications, Inc. (San Diego, Calif.). Cells were seeded in synoviocyte growth medium (Cell Applications, Inc., San Diego, Calif.) and allowed to grow overnight. The following day, media was replaced and cells were treated with varying concentrations of selected compounds according to Formula I (e.g., Example Compound 5) (0.1% final DMSO concentration). Two hours later, cells were induced with 50 µg/mL Poly(I:C) (Sigma-Aldrich, St. Louis, Mo.). Supernatants were collected 20 hours post-induction and used to monitor RANTES and IP-10 levels using DuoSet ELISA kits (Human CXCL10/IP-10 DuoSet & Human CCL5/RANTES DuoSet; R&D Systems, Inc., Minneapolis, Minn.).
Using a similar assay Compound 5 was also found to inhibit production of IFN-β with an IC50 of about 40 nM

In data set [4] the test system is collagen-induced arthritis. Put plainly: Collagen-induced arthritis model in mice. The note with it: for day symptoms of arthritis appeared: days 18-34. Format: in vivo. On the procedure: Male DBA/1 mice were injected with 150 μL of […] bovine type II collagen in Freund's complete adjuvant on days 0 and 21. On days 18 through 34, 100 mg/kg or 150 mg/kg Example Compound 5 was administered orally each day. Also on days 18 through 34, all mouse paws were given a clinical score on a scale of 0-5, based upon the severity of erythema and swelling. Body weights were measured every other day beginning on day 18. Mice were euthanized on day 34, livers were weighed and paws frozen in preparation for subsequent histopathology evaluation.

Turning to `N#Cc1cc(-c2ccnc(Nc3ccc(N4CCOCC4)cc3)n2)ccc1OC1CCOCC1` [Example 5, 5-(2-{[4-(Morpholin-4-yl)phenyl]amino}pyrimidin-4-yl)-2-(tetrahydro-2H-pyran-4-yloxy)benzaonitrile], the IC50 is below 100 nM in data set [1], below 5 nM in data set [2] and around 40 nM in data set [3]. Also, the “day symptoms were present in all mice” value in data set [4] (100 mg/kg orally) and in data set [4] (150 mg/kg orally) was at most 30 days throughout. Moreover, the “inhibition of AUC of clinical score as a function of time” value in data set [4] (100 mg/kg orally) is on record as 29%; in data set [4] (150 mg/kg orally), 45%. Also, the “inhibition of body weight loss, day 18-34” value turned out to be 23% in data set [4] (100 mg/kg orally) and 42% in data set [4] (150 mg/kg orally). Besides, the “reduction of magnitude of clinical score on day 34” value in data set [4] (100 mg/kg orally) is given as 20%; in data set [4] (150 mg/kg orally) it was 38%. The results for the “day symptoms of arthritis appeared” value in data set [4] (100 mg/kg orally each day) and in data set [4] (150 mg/kg orally each day) were 23 days and 24 days, respectively. For the same compound, the “effect in reducing collagen-induced arthritis” value in data set [4] (100 and 150 mg/kg orally) was “significant, dose-dependent effects”. In data set [4] (any treatment (100 and 150 mg/kg), day 34), the liver weights result is reported as “No differences”. Also, the “increases in erythema and swelling (cumulative clinical score)” value in data set [4] (both doses (100 and 150 mg/kg)) is on record as “significantly slower”.

For orientation: IC50 means the concentration that gives 50% inhibition.
